According to PMC10511816 (The Journal of Biological Chemistry, 2023):
Values joined by “and” are separate entries in the source; they are usually repeats but may differ in a detail not shown here. Identical values can stand only once.

How the values were obtained:
XDH = XDH (Bos taurus, UniProt P80457); details: 2 μM hypoxanthine, 500 μM β-NAD+, 6 nM XDH, pH 8.5, 25 °C
Procedure: The rate of NAD^+ conversion to NADH was measured at A340 nm.
Bovine milk was obtained from the animal farm of the Nippon Veterinary and Life Science University. […] The dehydrogenase form of the enzyme (XDH) was obtained by reacting XO immediately upon purification with 5 mM DTT at pH 8.5, 25 °C for 1 h. XO and XDH assays were carried out at 25 °C under aerobic conditions. […] A total of 500 μM β-NAD^+ was added to the same reaction solution for XDH activity. Physiological conditions such as pH 7.4 (0.1 M potassium phosphate buffer (KPB), 0.2 mM EDTA) and the addition of 50 μM β-NADH were also used. The activity was measured by following 295 nm and 340 nm on a UV-1800 or UV1900i spectrophotometer. […] In addition, the enzyme reaction solution was quenched with perchloric acid and neutralized with K2CO3, with products analyzed using HPLC as described below. Spectrophotometric data were analyzed using UV-Probe software Ver. 2.70 or LabSolutions UV-Vis Ver. […] Kinetic parameters were determined from nonlinear curve fits of raw data using GraphPad Prism 9 software.

[1] = target: T1, Purine nucleoside phosphorylase (PNP) (Homo sapiens, UniProt P00491); design: method as in PMID 5653179, PMID 121041; details: cited from earlier work
T1 construct: purchased Sigma-Aldrich; host or cells: E. coli
T1 sequence (P00491 1-289): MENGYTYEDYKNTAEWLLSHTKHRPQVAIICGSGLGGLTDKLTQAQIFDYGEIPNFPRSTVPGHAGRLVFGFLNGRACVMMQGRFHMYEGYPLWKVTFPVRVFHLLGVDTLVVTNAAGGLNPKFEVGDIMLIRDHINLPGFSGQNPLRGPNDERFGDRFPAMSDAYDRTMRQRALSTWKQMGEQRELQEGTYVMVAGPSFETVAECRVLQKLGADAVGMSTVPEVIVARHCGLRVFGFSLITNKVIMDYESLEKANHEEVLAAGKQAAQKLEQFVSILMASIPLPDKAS

[2] = system: hypoxanthine-guanine phosphoribosyltransferase (HGPRT); details: cited from earlier work
XO type enzyme = target: T2, XO type enzyme (Bos taurus, UniProt P80457); assay: half-life of the Ered•oxypurinol complex (activity recovery); type: biochemical, bovine
T2 construct: Bovine milk was obtained from the animal farm of the Nippon Veterinary and Life Science University; from tissue; host or cells: bovine milk
Procedure: We next examined the half-life of the Ered•oxypurinol complex under more physiological conditions.
The main figure plots activity (%) against time.
Uric acid production was measured at 295 nm with UV-1800 Spectrophotometer at 25 °C. The activity recovery was followed overtime until the activity to flavin ratio reached approximately 200, indicating full reactivation.

[3] = target: T1, Purine nucleoside phosphorylase (PNP); assay: PNP activity assay (inosine degradation, HPLC); type: biochemical; details: human recombinant PNP
Text: Plasma allopurinol never reaches that concentration, but oxypurinol concentrations could ([34], [35]). Although oxypurinol has been reported to have a stronger inhibitory effect than allopurinol ([32], [36]), the results were obtained prior to several reports on the cooperativity of PNP ([37]). […] This nonideal behavior may be a manifestation of the well-established allosteric properties of PNP ([37]).
Purine nucleoside phosphorylase (human, recombinantly expressed in E. coli) was purchased from Sigma-Aldrich. The reaction solution for inosine hydrolysis consisted of 50 mM KPB (pH 7.4), with varying concentrations of inosine and oxypurinol.
A295 indicates the concentration of uric acid yielded by XOR. […] A295 indicates the concentration of uric acid yielded by XOR. Figure S2. The XOR inhibition mode of oxypurinol.A–G, Lineweaver-Burk plots were generated to visualize data and estimated the inhibition patterns. Data are representative of least two independent experiments. […] The same as in A except that 1.23 nM XDH was used instead of XO and 500 μM NAD^+ was added to the reaction solution. […] The same as in D except that hypoxanthine was used instead of xanthine. […] The same as in D except that febuxostat was used instead of oxypurinol. […] The same as in F except that hypoxanthine was used instead of xanthine. Figure S3. […] Hypoxanthine, xanthine, and uric acid were measured by HPLC.

XOR = details: pH 8.5 and 25 °C; cited from earlier work

T2 sequence (P80457 whole entry): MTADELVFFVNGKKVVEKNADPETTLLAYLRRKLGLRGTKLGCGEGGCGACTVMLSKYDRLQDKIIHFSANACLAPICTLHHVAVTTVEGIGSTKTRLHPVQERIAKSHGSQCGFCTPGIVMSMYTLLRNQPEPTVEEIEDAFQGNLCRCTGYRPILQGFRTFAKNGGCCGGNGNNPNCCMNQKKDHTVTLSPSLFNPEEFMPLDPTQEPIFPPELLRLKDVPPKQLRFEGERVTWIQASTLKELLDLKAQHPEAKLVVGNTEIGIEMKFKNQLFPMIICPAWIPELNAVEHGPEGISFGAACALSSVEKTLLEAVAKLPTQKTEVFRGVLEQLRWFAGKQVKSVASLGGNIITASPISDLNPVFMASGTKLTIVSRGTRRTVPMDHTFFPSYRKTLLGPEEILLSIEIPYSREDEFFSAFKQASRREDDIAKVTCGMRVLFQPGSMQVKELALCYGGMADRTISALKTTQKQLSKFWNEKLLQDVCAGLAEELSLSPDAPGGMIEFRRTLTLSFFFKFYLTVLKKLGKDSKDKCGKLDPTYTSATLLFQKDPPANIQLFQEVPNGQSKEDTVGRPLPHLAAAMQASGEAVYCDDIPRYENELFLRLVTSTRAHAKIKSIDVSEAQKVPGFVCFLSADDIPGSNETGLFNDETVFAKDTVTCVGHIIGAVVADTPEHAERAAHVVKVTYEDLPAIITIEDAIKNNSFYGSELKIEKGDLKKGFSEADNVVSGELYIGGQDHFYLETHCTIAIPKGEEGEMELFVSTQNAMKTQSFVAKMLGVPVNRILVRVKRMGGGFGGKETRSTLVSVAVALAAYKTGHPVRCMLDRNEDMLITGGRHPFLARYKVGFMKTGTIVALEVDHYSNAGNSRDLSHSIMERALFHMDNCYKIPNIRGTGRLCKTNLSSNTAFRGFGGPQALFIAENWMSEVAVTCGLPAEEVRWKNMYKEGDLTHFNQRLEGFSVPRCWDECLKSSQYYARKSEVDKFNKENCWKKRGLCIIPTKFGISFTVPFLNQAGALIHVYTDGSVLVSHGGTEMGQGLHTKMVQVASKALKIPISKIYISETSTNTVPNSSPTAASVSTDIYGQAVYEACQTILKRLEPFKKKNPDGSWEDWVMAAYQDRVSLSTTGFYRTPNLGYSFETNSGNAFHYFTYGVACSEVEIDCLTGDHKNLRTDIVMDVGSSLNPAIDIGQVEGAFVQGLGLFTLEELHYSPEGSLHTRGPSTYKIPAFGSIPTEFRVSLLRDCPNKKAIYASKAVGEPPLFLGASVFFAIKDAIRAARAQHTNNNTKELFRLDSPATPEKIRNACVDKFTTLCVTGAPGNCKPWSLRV
Sequence of XDH (P80457 whole entry): as above

SMILES: Oc1ncnc2[nH]ncc12 [Allopurinol]
- concentration above which NADH formation is immediately inhibited (XDH): Above 5 μM
- Ki [1]: > 200 µM
- substrate or inhibitor of HGPRT [2]: is a substrate

SMILES: O=c1[nH]c(=O)c2c[nH]nc2[nH]1 [Oxypurinol]
- half-life of the Ered•oxypurinol complex (XO type enzyme; pH 7.4, 25 °C): 9.2 h and 9.198 h
- half-life of the Ered•oxypurinol complex (XO type enzyme; pH 7.4, 37 °C): 1.17 h and 1.22 h
- half-life of the Ered•oxypurinol complex (XO type enzyme; pH 8.5, 37 °C): 1.17 h and 1.18 h
- inhibition of PNP [3]: weakly but allosterically inhibits PNP
- mode of inhibition for inosine ([3]; 50 mM KPB pH 7.4, 0-1000 μM oxypurinol): competitive
- half-life for reoxidation / dissociation of the Ered•oxypurinol complex (XOR): 5 h
